Laboratory results taken from PMC6946680, “Modulation of brain cation-Cl^− cotransport via the SPAK kinase inhibitor ZT-1a” (Nature Communications, 2020).
Several values for one entry are separate records, joined by “and”; a condition that tells them apart may be missing. Equal entries are not always repeated.

Columns and labels:
[1] = test system: mouse model of ischemic stroke (tMCAO); experiment: Ex vivo T2-weighted MRI and DTI of brains 7 days post tMCAO; type: in vivo
[2] = test system: KCC3 pThr991; experiment: Immunoblot of KCC site 1 phosphorylation (KCC3 Thr991) in HEK-293 cells transfected with FLAG-KCC3; type: cell-based, human; conditions: for KCC3 pThr991 / KCC3: Fig S4b
[3] = test system: pERK1/2; experiment: Immunoblot of phospho-ERK1/2 in ischemic mouse brain; type: in vivo; conditions: for pERK/Na K pump (fold veh-CL): Membrane
Text: Cytosol and crude membrane protein
Expressions of Na+-K+ ATPase
respectively. d Densitometric analyses of immunoblots.

[4] = ZT-1a content in plasma and brain of sham and tMCAO mice (LC-MS/MS); type: in vivo, mouse; conditions: for plasma ZT-1a concentration: Fig 6e; for plasma ZT-1a concentration / Brain tissue ZT-1a concentration: individual animals; for Brain tissue ZT-1a concentration: Fig 6f
[5] = target: panel of 140 recombinant kinases; type: biochemical
Method: Supplementary Table 2. ZT-1a kinase profiling data6.
ZT-1a was tested at 10 and 1 µM against a panel of 140 recombinant kinases in an enzymatic
activity-based assay performed by the International Centre for Kinase Profiling in the MRC
Protein Phosphorylation and Ubiquitylation Unit. Values represent % residual kinase activity

[6] = test system: pSPAK (pSer373)/pOSR1 (pSer325); experiment: Immunoblot of pSPAK/pOSR1 in ischemic mouse brain membrane fractions; conditions: for SPAK / Na-K pumb / pSer373 / SPAK: Fig 8, individual samples; for pSPAK pOSR1/Na K pump (fold veh-CL): Membrane, single samples
[7] = test system: GSK-3β Ser9 phosphorylation; experiment: Immunoblot of GSK-3β Ser9 phosphorylation in HEK-293 cells; conditions: for GSK3b pSer9 / Actin: Fig S4b
[8] = test system: NKCC1; experiment: 86Rb+ uptake assay for NKCC1 activity in HEK-293 cells; type: cell-based; design: key to 86Rb+ uptake: 86Rb+ uptake in CPM per mg protein; conditions: for 86Rb+ uptake: replicates
Method: Thirty-six hours post transfection, cells were exposed for 30 min to either control isotonic conditions or hypotonic low [Cl^−] conditions (to activate the SPAK/OSR1 pathway), and then treated for an additional 30 min in the same conditions with the indicated ZT-1a concentrations in the presence of 1 mM ouabain and 0.1 mM bumetanide. Ten-minute ^86Rb^+ uptake values were quantified by scintillation counting, normalized per mg protein for each condition, and plotted for both isotonic and hypotonic conditions. ***p < 0.001; **p < 0.01; *p < 0.05; ns—nonsignificant [by one-way ANOVA with post hoc testing (n = 6, error bars represent the mean ± SEM)]. b ^86Rb^+ uptake assays in the presence of ZT-1a measure transport activity of NKCC1. […] Thirty-six hours post transfection, cells were exposed for 30 min to either control isotonic conditions or hypotonic low [Cl^−] conditions (to activate the SPAK/OSR1 pathway), and then treated in the same conditions for an additional 30 min with 10 µM ZT-1a or 0.1 mM bumetanide (Bum) in the presence of 1 mM ouabain (Na^+/K^+-ATPase inhibitor). ^86Rb^+ uptake was allowed to proceed for 10 min and was then quantified by scintillation counting. ^86Rb^+ uptake CPMs were normalized per mg protein and plotted for both isotonic and hypotonic conditions. […] Thirty-six hours post transfection, cells were exposed for 30 min to either control isotonic conditions or hypotonic low [Cl^−] conditions (to activate the SPAK/OSR1 pathway), and then treated for an additional 30 min in the same conditions with the indicated ZT-1a concentrations in the presence of 1 mM ouabain. Ten-minute ^86Rb^+ uptake values were quantified by scintillation counting, normalized per mg protein for each condition, and plotted for both isotonic and hypotonic conditions. ***p < 0.001; **p < 0.01; *p < 0.05; ns—nonsignificant [by one-way ANOVA with post hoc testing (n = 6, error bars represent the mean ± SEM)].
This stimulating medium was then removed and replaced with isotonic medium containing inhibitors plus 2 µCi/ml ^86Rb^+. After incubation for 10 min at 37 °C, cells were rapidly washed three times with the respective ice-cold nonradioactive medium. Washed cells were lysed in 300 µl of ice-cold lysis buffer and ^86Rb^+ uptake was quantitated by liquid scintillation counting (PerkinElmer).

[9] = test system: KCC3 pThr991/pThr1048; experiment: Choroid plexus KCC3 phospho-IP/immunoblot in rat IVH model; type: in vivo
[10] = test system: KCC3 pThr1048; experiment: Immunoblot of KCC site 2 phosphorylation (KCC3 Thr1048) in HEK-293 cells transfected with FLAG-KCC3; type: cell-based, human; conditions: Fig S4b
[11] = 7 days post stroke, ZT-1a 5.0 mg/kg
[12] = rat CPe 48 h post IVH + 1a, replicates

## Cc1cc(C(C#N)c2ccc(Cl)cc2)c(Cl)cc1NC(=O)c1cc(Cl)ccc1O (centres unmarked) [ZT-1a, 5-chloro-N-(5-chloro-4-((4-chlorophenyl)(cyano)methyl)-2-methylphenyl)-2-hydroxybenzamide]
[1]; [11]
  EC tract FA values in the IL hemisphere: undiminished
  reduction of brain atrophy (% hemisphere shrinkage): ~ 41%
  reduction of stroke-induced lesion volume (T2-weighted MRI): ~ 40%
[1]; Fig 7d, CL hemisphere, individual brains
  EC FA value: 0.3452 and 0.2737 and 0.3976 and 0.3529 and 0.3132 and 0.3022 and 0.3144
[1]; Fig 7d, IL hemisphere, individual brains
  EC FA value: 0.3284 and 0.2019 and 0.3515 and 0.3727 and 0.2854 and 0.2283 and 0.2974
[1]; Fig 7d, individual brains
  % Shrinkage: 4.31% and 1.96% and 1.98% and 5.61% and 5.20% and 3.63% and 2.52%
  Lesion volume (mm3): 33.98 mm3 and 34.15 mm3 and 17.99 mm3 and 33.62 mm3 and 29.17 mm3 and 52.2 mm3 and 18.61 mm3
[2]; Homo sapiens, HEK293, 3 µM, HEK-293 cells, n = 4, read-out: inhibition of phosphorylation of KCC sites 1/2
  inhibition at 3 µM: 65 to 77%
[2]; ZT-1a 0.3 uM
  KCC3 pThr991 / KCC3: 0.89 and 0.932 and 0.861 and 0.828
[2]; ZT-1a 1 uM
  KCC3 pThr991 / KCC3: 0.63 and 0.651 and 0.702 and 0.601
[2]; ZT-1a 3 uM
  KCC3 pThr991 / KCC3: 0.65 and 0.601 and 0.553 and 0.517
[3]; Cytosol, CL, Fig S4d
  pERK/GAPDH (fold veh-CL): 1.33 fold veh-CL and 1.29 fold veh-CL and 0.75 fold veh-CL
[3]; CL, Fig S4d
  pERK/Na K pump (fold veh-CL): 1.45 fold veh-CL and 1.52 fold veh-CL and 1.76 fold veh-CL
[3]; IL, Fig S4d
  pERK/Na K pump (fold veh-CL): 1.27 fold veh-CL and 2.10 fold veh-CL and 1.54 fold veh-CL
[3]; ZT-1a 5.0 mg/kg
  p-ERK in ischemic brains: no marked inhibition
[4]; 2 h after 5 mg/kg i.p.
  ZT-1a concentration in CL and IL hemispheres of ischemic brains relative to sham brains: ~ 1.8 fold
  plasma ZT-1a levels in ischemic versus non-ischemic sham mice: indistinguishable
[4]; Sham mice
  plasma ZT-1a concentration: 329.00 ng/mL and 282.00 ng/mL and 324.00 ng/mL and 520.00 ng/mL and 751.00 ng/mL and 743.08 ng/mL and 457.88 ng/mL and 359.25 ng/mL and 143.14 ng/mL and 588.55 ng/mL and 379.00 ng/mL
[4]; tMCAO mice
  plasma ZT-1a concentration: 1494.00 ng/mL and 655.00 ng/mL and 82.00 ng/mL and 678.79 ng/mL and 587.05 ng/mL and 302.56 ng/mL and 827.38 ng/mL and 531.10 ng/mL and 662.00 ng/mL
[4]; sham, CL hemisphere
  Brain tissue ZT-1a concentration: 221.00 ng/gm tissue and 107.00 ng/gm tissue and 97.00 ng/gm tissue and 50.00 ng/gm tissue and 133.00 ng/gm tissue and 120.00 ng/gm tissue and 67.00 ng/gm tissue and 61.00 ng/gm tissue and 77.00 ng/gm tissue and 131.00 ng/gm tissue
[4]; sham, IL hemisphere
  Brain tissue ZT-1a concentration: 174.00 ng/gm tissue and 130.00 ng/gm tissue and 100.00 ng/gm tissue and 155.00 ng/gm tissue and 76.00 ng/gm tissue and 115.00 ng/gm tissue and 89.00 ng/gm tissue and 78.00 ng/gm tissue and 59.00 ng/gm tissue and 139.00 ng/gm tissue
[4]; tMCAO, CL hemisphere
  Brain tissue ZT-1a concentration: 161.00 ng/gm tissue and 118.00 ng/gm tissue and 139.00 ng/gm tissue and 285.00 ng/gm tissue and 269.00 ng/gm tissue and 132.00 ng/gm tissue and 326.00 ng/gm tissue and 170.00 ng/gm tissue and 163.00 ng/gm tissue and 133.00 ng/gm tissue and 245.00 ng/gm tissue
[4]; tMCAO, IL hemisphere
  Brain tissue ZT-1a concentration: 217.00 ng/gm tissue and 131.00 ng/gm tissue and 171.00 ng/gm tissue and 369.00 ng/gm tissue and 215.00 ng/gm tissue and 238.00 ng/gm tissue and 154.00 ng/gm tissue and 150.00 ng/gm tissue and 199.00 ng/gm tissue
[4]; normal naive mice
  penetration across the healthy BBB: minimal
[5]; 1 µM ZT-1a
  kinases of the 140 tested with >50% inhibition: only a single kinase
[5]; 1 µM ZT-1a vs DMSO control
  share of the 140 kinases not inhibited by >70%: 98%
[6]; CL hemisphere
  SPAK / Na-K pumb: 0.981 and 0.854 and 0.987 and 1.037 and 0.972 and 0.893
  pSer373 / SPAK: 1.177 and 1.25 and 1.197 and 1.217 and 1.153 and 1.09
[6]; IL hemisphere
  SPAK / Na-K pumb: 0.919 and 0.978 and 0.855 and 0.931 and 0.95 and 0.819
  pSer373 / SPAK: 0.773 and 0.739 and 0.598 and 0.674 and 0.62 and 0.668
[6]; CL
  pSPAK pOSR1/Na K pump (fold veh-CL): 1.23 fold veh-CL and 0.84 fold veh-CL and 1.17 fold veh-CL and 1.58 fold veh-CL and 1.64 fold veh-CL
[6]; IL
  pSPAK pOSR1/Na K pump (fold veh-CL): 1.24 fold veh-CL and 0.94 fold veh-CL and 0.88 fold veh-CL and 1.08 fold veh-CL and 0.87 fold veh-CL
[6]; compared with vehicle-control mice
  reduction of ischemia-induced elevation of pSPAK: 55–65%
[6]; post-stroke ZT-1a 5 mg/kg, 24 h reperfusion
  ischemia-induced increase of pSPAK/pOSR1: prevented
[7]; 3 µM ZT-1a, HEK-293 cells
  GSK-3β Ser9 phosphorylation: not inhibited
[7]; ZT-1a 0.3 uM
  GSK3b pSer9 / Actin: 0.56 and 0.601 and 0.586 and 0.538
[7]; ZT-1a 1 uM
  GSK3b pSer9 / Actin: 0.58 and 0.576 and 0.603 and 0.529
[7]; ZT-1a 3 uM
  GSK3b pSer9 / Actin: 0.53 and 0.5901 and 0.613 and 0.56
[8]; Fig 3b right, NKCC1, ZT-1a 1 uM, Hypotonic low Cl-
  86Rb+ uptake: 31312.2 and 30912.6 and 28110.4 and 29118.3 and 28103.5 and 29176.8
[8]; Fig 3b right, NKCC1, ZT-1a 1 uM, Isotonic control
  86Rb+ uptake: 5076.2 and 4867.3 and 5812.7 and 4239.7 and 5129.6 and 5519.2
[8]; Fig 3b right, NKCC1, ZT-1a 3 uM, Hypotonic low Cl-
  86Rb+ uptake: 14078.7 and 13156.2 and 15002.4 and 14182.5 and 14354.3 and 14621.6
[8]; Fig 3b right, NKCC1, ZT-1a 3 uM, Isotonic control
  86Rb+ uptake: 3812.1 and 3286.7 and 4513.3 and 4013.5 and 3012.8 and 3586.3
[8]; Fig 3b right, NKCC1, ZT-1a 10 uM, Hypotonic low Cl-
  86Rb+ uptake: 3712.6 and 5014.2 and 4381.3 and 3518.2 and 4604.5 and 3837.1
[8]; Fig 3b right, NKCC1, ZT-1a 10 uM, Isotonic control
  86Rb+ uptake: 1476.7 and 1378.3 and 1409.2 and 1215.2 and 1522.8 and 1368.4
[8]; Fig 3b, NKCC1 + 1a (10 µM), Hypotonic low Cl-
  86Rb+ uptake: 7709.2 and 9015.3 and 7102.3 and 8791.5 and 8682.5 and 8108.1
[8]; Fig 3b, NKCC1 + 1a (10 µM), Isotonic control
  86Rb+ uptake: 1446.7 and 1247.2 and 1369.6 and 1195.7 and 1501.2 and 1382.8
[8]; ZT-1a at concentration > 1 µM, isotonic or hypotonic low Cl−
  NKCC1-mediated K+ influx: significantly inhibited
[9]; [12]
  KCC3 pThr991 / Actin: 0.089 and 0.127 and 0.217 and 0.096 and 0.114 and 0.223
  KCC3 pThr1048 / Actin: 0.504 and 0.573 and 0.821 and 0.586 and 0.633 and 0.872
[9]; rat CPe, ICV ZT-1a
  reduction of post-IVH KCC3 phosphorylation at Thr991: 6 fold
  reduction of post-IVH KCC3 phosphorylation at Thr1048: 2.1 fold
[10]; ZT-1a 0.3 uM
  KCC3 pThr1048 / KCC3: 0.52 and 0.601 and 0.501 and 0.473
[10]; ZT-1a 3 uM
  KCC3 pThr1048 / KCC3: 0.31 and 0.301 and 0.253 and 0.205
